# Results published in publication PMC10403534, “XCP1 cleaves Pathogenesis-related protein 1 into CAPE9 for systemic immunity in Arabidopsis” (Nature Communications, 2023).
# Target: T1, XCP1-His (Arabidopsis thaliana, UniProt O65493)
# T1 construct: C-terminal 6xHis tag kept; from Arabidopsis cDNA; transiently expressed in Nicotiana benthamiana leaves with P19, Ni-NTA purified
# Experiment: inhibition of Ac-CNYD-AMC cleavage, […] h preincubation, […] h incubation
# Type: biochemical
# Details: 1 ug enzyme, 25 uM Ac-CNYD-AMC; covalent
# T1 sequence (O65493 137-355): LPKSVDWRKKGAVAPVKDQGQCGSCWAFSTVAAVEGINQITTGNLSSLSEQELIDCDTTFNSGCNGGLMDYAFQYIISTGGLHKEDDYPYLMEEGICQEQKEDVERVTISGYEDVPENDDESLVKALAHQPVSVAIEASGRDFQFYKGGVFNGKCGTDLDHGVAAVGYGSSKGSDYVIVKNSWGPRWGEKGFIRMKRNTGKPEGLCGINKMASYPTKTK
smiles,measurement,value
CC(C)C[C@H](NC(=O)[C@H]1O[C@@H]1C(=O)O)C(=O)NCCCCNC(=N)N [E-64],"inhibition of Ac-CNYD-AMC cleavage, 1 h preincubation, 10 h incubation",CNYDase activity of purified XCP1-His was enhanced by CaCl2 and inhibited by ZnCl2 and E-64
